# Reference: patent US12497663B2, “Method of monitoring treatment” (LDN Pharma Limited, priority 2019, dated 2025)
# Test system: CD3+ cells
# Assay: Gene expression in CD3+ cells from CD14-ve PBMCs cultured with naltrexone (Illumina biochips)
# Type: cell-based, human
# Conditions: 4 h
# Procedure: The RNA was then extracted from the cells using Trizol then isopropanol. The expression of the genes was measured using Illumina platform with biochips surveying the total human genome. […] The ratio of treated:untreated was calculated and the 25% change from untreated considered relevant.
# [1] = ratio treated:untreated, 10 nM naltrexone
# [2] = ratio treated:untreated, 10 uM naltrexone
structure (smiles),measurement,setting,value
"O=C1CC[C@@]2(O)[C@H]3Cc4ccc(O)c5c4[C@@]2(CCN3CC2CC2)[C@H]1O5 [NTX, morphinan-6-one,17-(cyclopropylmethyl)-4,5-epoxy-3,14-dihydroxy-(5a)]","YWHAZ expression, NTX",10 uM naltrexone (NTX),462
same,ACTB N/U-score,10 uM naltrexone,o (no change)
same,ALDH4A1 N/U-score,10 uM naltrexone,o (no change)
same,ASAP1 N/U-score,10 uM naltrexone,o (no change)
same,BCLAF1 N/U-score,10 uM naltrexone,o (no change)
same,BIRC3 N/U-score,10 uM naltrexone,o (no change)
same,CASZ1 N/U-score,10 uM naltrexone,o (no change)
same,CDC42SE2 N/U-score,10 uM naltrexone,o (no change)
same,CDKN2AIP N/U-score,10 uM naltrexone,o (no change)
same,DRAP1 N/U-score,10 uM naltrexone,D (reduction)
same,DYNLL2 N/U-score,10 uM naltrexone,o (no change)
same,EIF2S3 N/U-score,10 uM naltrexone,o (no change)
same,EIF3E N/U-score,10 uM naltrexone,o (no change)
same,EIF3M N/U-score,10 uM naltrexone,o (no change)
same,EIF4B N/U-score,10 uM naltrexone,o (no change)
same,EZR N/U-score,10 uM naltrexone,o (no change)
same,FRG1 N/U-score,10 uM naltrexone,o (no change)
same,H3F3A N/U-score,10 uM naltrexone,o (no change)
same,HIST1H4C N/U-score,10 uM naltrexone,o (no change)
same,HPCAL1 N/U-score,10 uM naltrexone,o (no change)
same,ITGB2 N/U-score,10 uM naltrexone,o (no change)
same,KCTD6 N/U-score,10 uM naltrexone,o (no change)
same,LSM5 N/U-score,10 uM naltrexone,o (no change)
same,MAP4K1 N/U-score,10 uM naltrexone,D (reduction)
same,MORF4L1 N/U-score,10 uM naltrexone,o (no change)
same,MTF1 N/U-score,10 uM naltrexone,o (no change)
same,MYLK N/U-score,10 uM naltrexone,o (no change)
same,NUCB1 N/U-score,10 uM naltrexone,o (no change)
same,OR10A6 N/U-score,10 uM naltrexone,o (no change)
same,PAH N/U-score,10 uM naltrexone,o (no change)
same,PDCD4 N/U-score,10 uM naltrexone,o (no change)
same,PECI N/U-score,10 uM naltrexone,o (no change)
same,PRPF8 N/U-score,10 uM naltrexone,o (no change)
same,PSME2 N/U-score,10 uM naltrexone,o (no change)
same,PVRL2 N/U-score,10 uM naltrexone,o (no change)
same,RASAL3 N/U-score,10 uM naltrexone,D (reduction)
same,S100A6 N/U-score,10 uM naltrexone,D (reduction)
same,SH3BGRL3 N/U-score,10 uM naltrexone,o (no change)
same,SPOCK2 N/U-score,10 uM naltrexone,o (no change)
same,WDR75 N/U-score,10 uM naltrexone,o (no change)
same,YWHAZ N/U-score,10 uM naltrexone,D (reduction)
same,ACTB LDN/UN,[1],1.560
same,ALDH4A1 LDN/UN,[1],1.691
same,ASAP1 LDN/UN,[1],0.701
same,BCLAF1 LDN/UN,[1],0.653
same,BIRC3 LDN/UN,[1],0.703
same,CASZ1 LDN/UN,[1],1.775
same,CDC42SE2 LDN/UN,[1],0.590
same,CDKN2AIP LDN/UN,[1],0.702
same,DRAP1 LDN/UN,[1],1.253
same,DYNLL2 LDN/UN,[1],0.702
same,EIF2S3 LDN/UN,[1],0.702
same,EIF3E LDN/UN,[1],0.647
same,EIF3M LDN/UN,[1],0.613
same,EIF4B LDN/UN,[1],1.576
same,EZR LDN/UN,[1],1.563
same,FRG1 LDN/UN,[1],0.614
same,H3F3A LDN/UN,[1],0.632
same,HIST1H4C LDN/UN,[1],0.667
same,HPCAL1 LDN/UN,[1],1.515
same,ITGB2 LDN/UN,[1],1.528
same,KCTD6 LDN/UN,[1],0.700
same,LSM5 LDN/UN,[1],0.639
same,MAP4K1 LDN/UN,[1],1.294
same,MORF4L1 LDN/UN,[1],0.698
same,MTF1 LDN/UN,[1],0.676
same,MYLK LDN/UN,[1],1.659
same,NUCB1 LDN/UN,[1],1.483
same,OR10A6 LDN/UN,[1],1.570
same,PAH LDN/UN,[1],1.687
same,PDCD4 LDN/UN,[1],0.672
same,PECI LDN/UN,[1],0.675
same,PRPF8 LDN/UN,[1],1.543
same,PSME2 LDN/UN,[1],0.700
same,PVRL2 LDN/UN,[1],1.483
same,RASAL3 LDN/UN,[1],1.365
same,S100A6 LDN/UN,[1],1.397
same,SH3BGRL3 LDN/UN,[1],1.479
same,SPOCK2 LDN/UN,[1],1.487
same,WDR75 LDN/UN,[1],0.705
same,YWHAZ LDN/UN,[1],1.287
same,ACTB NTX/UN,[2],1.241
same,ALDH4A1 NTX/UN,[2],1.184
same,ASAP1 NTX/UN,[2],0.826
same,BCLAF1 NTX/UN,[2],0.800
same,BIRC3 NTX/UN,[2],0.918
same,CASZ1 NTX/UN,[2],1.130
same,CDC42SE2 NTX/UN,[2],0.796
same,CDKN2AIP NTX/UN,[2],0.766
same,DRAP1 NTX/UN,[2],0.723
same,DYNLL2 NTX/UN,[2],0.865
same,EIF2S3 NTX/UN,[2],0.756
same,EIF3E NTX/UN,[2],0.910
same,EIF3M NTX/UN,[2],0.757
same,EIF4B NTX/UN,[2],1.123
same,EZR NTX/UN,[2],1.079
same,FRG1 NTX/UN,[2],0.773
same,H3F3A NTX/UN,[2],0.758
same,HIST1H4C NTX/UN,[2],0.836
same,HPCAL1 NTX/UN,[2],0.849
same,ITGB2 NTX/UN,[2],0.942
same,KCTD6 NTX/UN,[2],0.774
same,LSM5 NTX/UN,[2],0.839
same,MAP4K1 NTX/UN,[2],0.726
same,MORF4L1 NTX/UN,[2],0.772
same,MTF1 NTX/UN,[2],0.771
same,MYLK NTX/UN,[2],1.241
same,NUCB1 NTX/UN,[2],1.148
same,OR10A6 NTX/UN,[2],1.235
same,PAH NTX/UN,[2],1.183
same,PDCD4 NTX/UN,[2],0.779
same,PECI NTX/UN,[2],1.043
same,PRPF8 NTX/UN,[2],1.174
same,PSME2 NTX/UN,[2],0.877
same,PVRL2 NTX/UN,[2],1.102
same,RASAL3 NTX/UN,[2],0.713
same,S100A6 NTX/UN,[2],0.655
same,SH3BGRL3 NTX/UN,[2],1.224
same,SPOCK2 NTX/UN,[2],1.194
same,WDR75 NTX/UN,[2],0.830
same,YWHAZ NTX/UN,[2],0.736
